The molecules below were run on LNCaP cells (assay: Assay on inhibitory activity for LNCaP cell proliferation (CCK-8)). Conditions: 168 h incubation.
Format: cell-based
Experimental: LNCaP cells in a good growth state were taken, washed with PBS, digested with pancreatin, and added with 2% CSS—FBS phenol red-free 1640 complete medium to terminate the digestion. The cells were collected by using a centrifuge tube, adjusted to a cell density of 1×10^5 cells/mL, and seeded in a 96-well plate (100 μL/well). Meanwhile, compounds were added using a nanoliter pipettor such that the final concentrations of the compounds were 10000 nM-0.61 nM. Two duplicate wells were set for each concentration, and meanwhile, a control was set. After another 168 h of incubation in the cell incubator, the detection reagent CCK-8 (manufacturer: Dojindo, 10 μL/well) was added.

IC50 [nM]	Compound
< 1000	N#Cc1ccc(O[C@H]2CC[C@H](NC(=O)c3ccc(C4CCN(CC5Cc6ccc7c(C8CCC(=O)NC8=O)coc7c6C5)CC4)nn3)CC2)cc1Cl (some centres unmarked) [Compound 33]
< 1000	N#Cc1ccc(O[C@H]2CC[C@H](NC(=O)c3ccc(C4CCN(CC5Cc6ccc7c(C8CCC(=O)NC8=O)noc7c6C5)CC4)nn3)CC2)cc1Cl (some centres unmarked) [Compound 31]

Same assay, conditions: Homo sapiens, 168 h incubation

Compound	IC50 [nM]
CN(c1ccc(C#N)c(Cl)c1)[C@H]1CC[C@H](NC(=O)c2cnc(N3CCC(CN4CCc5ccc6c(C7CCC(=O)NC7=O)noc6c5C4)CC3)nc2)CC1 (some centres unmarked) [Compound 116]	< 1000
N#Cc1ccc(O[C@H]2CC[C@H](NC(=O)c3ccc(N4CCC(N5CC(n6ccc7c8c(C9CCC(=O)NC9=O)noc8ccc76)C5)CC4)nn3)CC2)cc1Cl (some centres unmarked) [Compound 39]	< 1000
N#Cc1ccc(O[C@H]2CC[C@H](NC(=O)c3ccc(C4CCN([C@H]5C[C@H](n6ccc7c8c(C9CCC(=O)NC9=O)noc8ccc76)C5)CC4)nn3)CC2)cc1Cl (some centres unmarked) [Compound 50]	< 1000
N#Cc1ccc(O[C@H]2CC[C@H](NC(=O)c3ccc(N4CCC(N5CCC(n6ccc7c8c(C9CCC(=O)NC9=O)noc8ccc76)CC5)CC4)nn3)CC2)cc1Cl (some centres unmarked) [Compound 40]	< 1000
N#Cc1ccc(O[C@H]2CC[C@H](NC(=O)c3ccc(N4CCC(N5CCc6ccc7c(C8CCC(=O)NC8=O)noc7c6CC5)CC4)nn3)CC2)cc1Cl (some centres unmarked) [Compound 23]	< 1000
N#Cc1ccc(O[C@H]2CC[C@H](NC(=O)c3ccc(C4CCN(CC5Cc6ccc7c(C8CCC(=O)NC8=O)coc7c6C5)CC4)nn3)CC2)cc1Cl (some centres unmarked) [Compound 32]	< 1000
N#Cc1ccc(O[C@H]2CC[C@H](NC(=O)c3ccc(C4CCN([C@H]5CC[C@H](n6ccc7c8c(C9CCC(=O)NC9=O)noc8ccc76)CC5)CC4)nn3)CC2)cc1Cl (some centres unmarked) [Compound 55]	< 1000
N#Cc1ccc(O[C@H]2CC[C@H](NC(=O)c3ccc(C4CCN(CC5Cc6ccc7c(C8CCC(=O)NC8=O)noc7c6C5)CC4)nn3)CC2)cc1Cl (some centres unmarked) [Compound 30]	< 1000
N#Cc1ccc(O[C@H]2CC[C@H](NC(=O)c3ccc(C4CCN(C[C@H]5C[C@@H](n6ccc7c8c(C9CCC(=O)NC9=O)noc8ccc76)C5)CC4)nn3)CC2)cc1Cl (single isomer, unassigned) [Compound 51]	< 1000
N#Cc1ccc(O[C@H]2CC[C@H](NC(=O)c3ccc(N4CCC(CN5CC(n6ccc7c8c(C9CCC(=O)NC9=O)noc8ccc76)C5)CC4)nn3)CC2)cc1Cl (some centres unmarked) [Compound 38]	< 1000
N#Cc1ccc(O[C@H]2CC[C@H](NC(=O)c3ccc(C4CCN([C@H]5C[C@@H](n6ccc7c8c(C9CCC(=O)NC9=O)noc8ccc76)C5)CC4)nn3)CC2)cc1Cl (some centres unmarked) [Compound 49]	< 1000
N#Cc1ccc(O[C@H]2CC[C@H](NC(=O)c3ccc(C4CCN(C[C@H]5C[C@H](n6ccc7c8c(C9CCC(=O)NC9=O)noc8ccc76)C5)CC4)nn3)CC2)cc1Cl (single isomer, unassigned) [Compound 52]	< 1000

The remaining lines, values ahead:

IC50 [nM]	Compound
< 1000	N#Cc1ccc(O[C@H]2CC[C@H](NC(=O)c3cnc(N4CC[C@H](CN5CCc6c(ccc7c(C8CCC(=O)NC8=O)noc67)C5)C4)nc3)CC2)cc1Cl (some centres unmarked) [Compound 143]
< 1000	N#Cc1ccc(O[C@H]2CC[C@H](NC(=O)c3cnc(N4CCC(CN5Cc6ccc7c(N8CCC(=O)NC8=O)coc7c6C5)CC4)nc3)CC2)cc1Cl [Compound 138]
< 1000	N#Cc1ccc(O[C@H]2CC[C@H](NC(=O)c3ccc(N4CCC(CN5Cc6cc7onc(C8CCC(=O)NC8=O)c7cc6C5)CC4)nn3)CC2)cc1Cl (some centres unmarked) [Compound 100]
< 1000	N#Cc1ccc(O[C@H]2CC[C@H](NC(=O)c3cnc(N4CCC(CN5CCc6ccc7c(C8CCC(=O)NC8=O)coc7c6CC5)CC4)nc3)CC2)cc1Cl (some centres unmarked) [Compound 135]
< 1000	N#Cc1ccc(O[C@H]2CC[C@H](NC(=O)c3cnc(N4CC[C@@H](CN5CCc6c(ccc7c(C8CCC(=O)NC8=O)noc67)C5)C4)nc3)CC2)cc1Cl (some centres unmarked) [Compound 144]
< 1000	N#Cc1ccc(O[C@H]2CC[C@H](NC(=O)c3cnc(N4CCC(CN5CCc6ccc7c(N8CCC(=O)NC8=O)coc7c6CC5)CC4)nc3)CC2)cc1Cl [Compound 141]
